Patent EP1409500B1, “ALKYLATED INOSITOLGLYCANS AND THEIR USES” (Rodaris Pharmaceuticals Limited, priority 2000, dated 2001)

Tests used:
[1] = system: PDH phosphatase; test: PDH phosphatase activation assay; format: biochemical; settings: 100µM
Excerpt: (§1) Methods for obtaining A-type and P-type mediators are set out in Caro et al, 1997, and in WO98/11116 and WO98/11117. Protocols for determining characteristic IPG biological activities such as PDH activation, PKA inhibition, acetylCoA activation, fructose-1,6-bis-phosphatase activity and lipogenesis are well known in the art, e.g. as described in Caro et al^[14].
(§2) The compounds of the invention can be tested for one or more the characteristic IPG-P and/or IPG-A activities mentioned above to determine whether they will be suitable for use a IPG mimetics or antagonists. Preferred assays measure the effect of the compounds on PDH phosphatase, PKA or lipogenesis. Protocols for these assays are provided in Caro et al ^[14]. The compounds can also be tested to determine whether they activate or inhibit other enzymes involved in insulin signalling mechanism, such as glucose-6-phosphatase.
In particular, preferred compounds having 1,6 linkages are good activators of PDH phosphatase activity.

[2] = system: PKA; test: PKA inhibition assay; format: biochemical
Excerpt: as §1, §2

Structure (SMILES)	PDH % activation [1] [%]	PKA % inhibition ([2]; 0.1µM) [%]	PKA % inhibition ([2]; 1µM) [%]	PKA % inhibition ([2]; 10µM) [%]
CO[C@H]1[C@H](O)[C@@H](O)[C@@H](O[C@@H]2O[C@H](CO)[C@@H](O)[C@H](O)[C@H]2N)[C@H](O)[C@@H]1O [RGL1015, O-(2-amino-2-deoxy-D-glucopyranosyl)-β(1,6)-D-3-O-methyl-chiro-inositol.]	38	14	15	–
CO[C@H]1[C@H](O)[C@@H](O)[C@@H](O[C@H]2O[C@H](CO)[C@@H](O)[C@H](O)[C@H]2N)[C@H](O)[C@@H]1O [RGL1024, O-(2-amino-2-deoxy-D-glucopyranosyl)-α(1,6)-D-3-O-methyl-chiro-inositol.]	65	17	34	2
CO[C@H]1[C@H](O)[C@@H](O)[C@@H](O[C@H]2O[C@H](CO)[C@H](O)[C@H](O)[C@H]2N)[C@H](O)[C@@H]1O [RGL1025, O-(2-amino-2deoxy-D-galactopyranosyl)-α(1,6)-D-3-O-methyl-chiro-inositol.]	17	48	-13	–
